Laboratory results taken from US5962456A, “N-acylpiperazine derivative, anti-ulcer drug, and antibacterial drug” (Shiseido Co., Ltd., priority 1996, dated 1999).

Experiments:
Helicobacter pyroli = assay: AHP: Antibacterial Activity Test Against Helicobacter pyroli (agar dilution); format: cell-based, HP NCTC 11637; conditions: Helicobacter, NCTC11637, 168 h; HP NCTC 11637, agar dilution, 7 days; read-out: AHP minimum inhibitory concentration (MIC)
Protocol: AHP: Antibacterial Activity Test Against Helicobacter pyroli i) Meaning The minimum inhibitory concentration (MIC) against Helicobacter pyroli (microaerophilic gram-negative bacterium which is supposed to deeply involve in pathogenesis, relapse, and recrudescence of ulcer, referred to as "HP" in the following) is measured so as to find out compounds which have antimicrobial activity against Helicobacter pyroli. ii) Method MICs were determined by the agar dilution method. The stock culture (-80° C.) of HP NCTC 11637 was thawed and cultured on tripticase soy agar supplemented with 5% sheep blood at 37° C. in an atmosphere of 5% O2, 10% CO2, and 85% N2. Grown colonies were transferred to the same plate and precultured for 3 days under the same condition. […] 10 μl of the bacterial suspension for inoculation (about 10^3 cfu) was inoculated on this plate and cultured for 7 days under the same condition as that of preculture. […] As the result of the comparison of these plates, when the number of the colony on the plate containing the sample compound was less than 90% with respect to that on the control plate, it was represented by "+". Contrary to this, when there was 90% or more, it was represented by "-".

[1] = MTT: Cell Damaging and Protecting Effect Test; format: cell-based, rabbit (male Japanese White); conditions: rabbit, gastric corpus mucosa cells, final concentration 10^-4 M, smaller value is better, read-out: MTT cell damaging rate
Description: MTT: Cell Damaging and Protecting Effect Test
It is confirmed that there is no toxicity in cell level. Those having a toxicity in cell level are inappropriate as an anti-ulcer drug.
A male Japanese White rabbit (2.5 to 3 kg) was anesthetized to death by Nembutal™ and, immediately thereafter, its stomach was removed. The greater curvature of the stomach was incised so as to remove the stomach contents therefrom. After the mucosal surface was washed with HBSS (Hanks' Balanced Salt Solution), the stomach in ice-cooled HBSS was transferred to a laboratory. Then, after the pyloric antrum was removed, the gastric corpus mucosa was separated by a spatula and then minced into 2 to 3 mm^3 pieces in BME (Basal Medium Eagle). Thereafter, these pieces were shaken at 120 to 130 cycles/minute for 15 minutes at 37° C. in BME 60 ml containing 280 U/ml of dispase and 30 to 50 U/ml of collagenase. Here, the concentration of collagenase was appropriately changed for each lot in view of the state of cells. The pieces were washed twice with EBSS (Earle's Balanced Salt Solution) containing 1 mM of EDTA and then shaken in MEM (Minimum Essential Medium) containing 1 mM of EDTA at 37° C. for 5 minutes. Subsequently, they were shaken in the dispase and collagenase having the same concentrations as those mentioned above for 15 minutes so as to remove the supernatant and then further shaken at 37° C. for 50 to 60 minutes at 120 to 130 cycles/minute. Then, after being washed twice with HBSS, Ham F12 containing 2% of Ultrocer G™ was used to attain the concentration of 1×10^6 cells/ml. Thus formed suspension was dispensed in each well of a 96-well plate by 200 μl. The plate was incubated in the atmosphere composed of 5% CO2 and 95% air at 37° C. for three days so as to attain a confluent state and then subjected to MTT assay.
The sample compound was dissolved in DMSO so as to attain a concentration of 10^-2 M and then diluted with HBSS containing 2% of Ultrocer G™ so as to attain a final concentration of 10^-4 M. To each group, which 8 wells were used for, 10 μl of MTT reagent was added immediately after 100 μl of the medium in each well was exchanged for same volume of the resulting solution of the sample compound. After being incubated in an atmosphere composed of 5% CO2 and 95% air at 37° C. for 4 hours, thus formed solution was centrifuged and then its supernatant was discarded. Subsequently, 100 μl of 100% ethanol was added to the residue so as to dissolve MTT formazan. Then, the absorbance (OD: 570 to 630) was measured by a microplate reader. This method utilizes a phenomenon in which MTT is changed to MTT formazan only by mitochondria of living cells so as to change color.
The cell damaging or cell protecting effect of the sample compound at the final concentration of 10^-4 M was expressed as cell damaging rate (%) as follows:
cell damaging rate (%)=(1-(absorbance in sample group/absorbance in control group))×100
Accordingly, the smaller rate value is better in the cell damage.

MIC (Helicobacter pyroli): < 3.13 µg/mL
SMILES: CC(C)=CCC/C(C)=C/COc1ccc(C(=O)N2CCN(CCNC(=O)c3ccc4c(c3)OCO4)CC2)cc1 [Example 1, 1-(4-geranyloxy)benzoyl-4-[2-(piperonyloylamino)ethyl]piperazine]
cytotoxicity at 4 h, 100 µM [1]: 21%
